# According to patent US20020052295A1, “Diacyl derivatives of propylene diamine having herbicidal activity” (priority 1999, published 2002):
# Columns and labels:
# CIRAR = assay: Post-emergence herbicidal activity on CIRAR (canada thistle, seedling); type: in vivo, Cirsium arvense; details: post-emergence spray; lowest tested rate with 80% or greater inhibition; about 14 days after treatment
# Excerpt: (§1) All such uses, and the biological activity enabling such uses, are embraced by the term “herbicidal” herein. Tables 15 and 16 summarize results of tests conducted as described below to determine the pre-emergence herbicidal activity, in the form of a GR80 value, of illustrative compounds of this invention. […] Where herbicidal activity was evident but 80% inhibition was not achieved at the highest rate tested (typically 1000 g/ha), an asterisk (*) is shown in the following tables. Herbicidal activity evident in the form of symptoms of phytotoxicity, in the absence of at least 80% inhibition at any rate, is indicated in the tables by “phyto”. A blank cell in the following tables indicates no herbicidal or phytotoxic response at any rate tested.
# (§2) In another set of tests, the post-emergence activity of compounds of this invention was evaluated on the cool season species listed above. The following procedure was used.
# (§3) A pre-prepared topsoil mixture (described above) was placed in a pot and compacted to a depth of 1.0 to 1.25 cm from the top of the pot. Seeds of each of several monocotyledonous and dicotyledonous annual plant species were placed on top of the soil The seeds were covered with a mixture of 50% topsoil and 50% Rediearth™ in sufficient quantity to level-fill the pots. The pots were then placed on a greenhouse bench and subirrigated as needed until plants growing from the seeds had emerged and reached a suitable growth stage for post-emergence treatment, typically 9 to 14 days after planting.
# (§4) A known amount of each test compound dissolved or suspended in an appropriate organic solvent was diluted with a 50:50 mix of acetone and water and applied to the plants by spraying with a standard spray nozzle in a spray volume of 3,100 l/ha at a spray pressure of […] (30 psig). Control plants were not sprayed.
# (§5) After treatment the plants were placed in a greenhouse with a 30/21° C. day/night temperature regime and were subsequently watered as needed for growth. Approximately 14 days after treatment, the plants were observed and herbicidal efficacy recorded as percent inhibition by comparison with control plants.
# SORVU = assay: Post-emergence herbicidal activity on SORVU (shattercane); type: in vivo, Sorghum vulgare; details: post-emergence spray; lowest tested rate with 80% or greater inhibition; about 14 days after treatment
# Excerpt: as §1, §2, §3, §4, §5
# PANDI = assay: Post-emergence herbicidal activity on PANDI (fall panicum); type: in vivo, Panicum dichotomiflorum; details: post-emergence spray; lowest tested rate with 80% or greater inhibition; about 14 days after treatment
# Excerpt: as §1, §2, §3, §4, §5
# CHEAL = assay: Post-emergence herbicidal activity on CHEAL (common lambsquarters); type: in vivo, Chenopodium album; details: post-emergence spray; lowest tested rate with 80% or greater inhibition; about 14 days after treatment
# Excerpt: as §1, §2, §3, §4, §5
# DATST = assay: Post-emergence herbicidal activity on DATST (jimsonweed); type: in vivo, Datura stramonium; details: post-emergence spray; lowest tested rate with 80% or greater inhibition; about 14 days after treatment
# Excerpt: as §1, §2, §3, §4, §5
# DIGSA = assay: Post-emergence herbicidal activity on DIGSA (large crabgrass); type: in vivo, Digitaria sanguinalis; details: post-emergence spray; lowest tested rate with 80% or greater inhibition; about 14 days after treatment
# POROL = assay: Post-emergence herbicidal activity on POROL (common purslane; table head prints PORAL); type: in vivo, Portulaca oleracea; details: post-emergence spray; lowest tested rate with 80% or greater inhibition; about 14 days after treatment
# Excerpt: as §1, §2, §3, §4, §5
# SOLNI [1] = assay: Post-emergence herbicidal activity on SOLNI (black nightshade); type: in vivo, Solanum nigrum; details: post-emergence spray; lowest tested rate with 80% or greater inhibition; about 14 days after treatment
# Excerpt: as §1, §2, §3, §4, §5
# ECHCG = assay: Post-emergence herbicidal activity on ECHCG (barnyardgrass); type: in vivo, Echinochloa crus-galli; details: post-emergence spray; lowest tested rate with 80% or greater inhibition; about 14 days after treatment
# Excerpt: as §1, §2, §3, §4, §5
# PANMI = assay: Post-emergence herbicidal activity on PANMI (wild proso millet); type: in vivo, Panicum miliaceum; details: post-emergence spray; lowest tested rate with 80% or greater inhibition; about 14 days after treatment
# ABUTH [2] = assay: Post-emergence herbicidal activity on ABUTH (velvetleaf); type: in vivo, Abutilon theophrasti; details: post-emergence spray; lowest tested rate with 80% or greater inhibition; about 14 days after treatment
# Excerpt: as §1, §2, §3, §4, §5
# SORHA [3] = assay: Post-emergence herbicidal activity on SORHA (johnsongrass, seedling); type: in vivo, Sorghum halepense; details: post-emergence spray; lowest tested rate with 80% or greater inhibition; about 14 days after treatment
# Excerpt: as §1, §2, §3, §4, §5
# AMARE = assay: Post-emergence herbicidal activity on AMARE (redroot pigweed); type: in vivo, Amaranthus retroflexus; details: post-emergence spray; lowest tested rate with 80% or greater inhibition; about 14 days after treatment
# Excerpt: as §1, §2, §3, §4, §5
# BRAPP [4] = assay: Post-emergence herbicidal activity on BRAPP (broadleaf signalgrass); type: in vivo, Brachiaria platyphylla; details: post-emergence spray; lowest tested rate with 80% or greater inhibition; about 14 days after treatment
# Excerpt: as §1, §2, §3, §4, §5
# CONAR = assay: Post-emergence herbicidal activity on CONAR (field bindweed); type: in vivo, Convolvulus arvensis; details: post-emergence spray; lowest tested rate with 80% or greater inhibition; about 14 days after treatment
# Excerpt: as §1, §2, §3, §4, §5
# BRAPP [5] = assay: Pre-emergence herbicidal activity on BRAPP (broadleaf signalgrass); type: in vivo, Brachiaria platyphylla; details: lowest tested rate giving 80% or greater inhibition, approx. 14 days after planting and treating, greenhouse
# Method in brief: (§6)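 GR80 from percent growth inhibition versus untreated controls, rated about 14 days after planting and pre-emergence soil-surface application. Compound applied in 50:50 acetone:water over freshly covered seeds; pots kept in greenhouse at 30/21 °C day/night.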
# SOLNI [6] = assay: Pre-emergence herbicidal activity on SOLNI (black nightshade); type: in vivo, Solanum nigrum; details: lowest tested rate giving 80% or greater inhibition, approx. 14 days after planting and treating, greenhouse
# Method in brief: as §6
# ABUTH [7] = assay: Pre-emergence herbicidal activity on ABUTH (velvetleaf); type: in vivo, Abutilon theophrasti; details: lowest tested rate giving 80% or greater inhibition, approx. 14 days after planting and treating, greenhouse
# Method in brief: as §6
# SORHA [8] = assay: Pre-emergence herbicidal activity on SORHA (johnsongrass, seedling); type: in vivo, Sorghum halepense; details: lowest tested rate giving 80% or greater inhibition, approx. 14 days after planting and treating, greenhouse
# Method in brief: as §6
# SETFA [9] = assay: Pre-emergence herbicidal activity on SETFA (giant foxtail); type: in vivo, Setaria faberi; details: lowest tested rate giving 80% or greater inhibition, approx. 14 days after planting and treating, greenhouse
# Method in brief: as §6
# SETFA [10] = assay: Post-emergence herbicidal activity on SETFA (giant foxtail); type: in vivo, Setaria faberi; details: post-emergence spray; lowest tested rate with 80% or greater inhibition; about 14 days after treatment
# Excerpt: as §1, §2, §3, §4, §5
SMILES,Post-emergence activity (GR80) SORVU (SORVU),Post-emergence activity (GR80) PANDI (PANDI),Post-emergence activity (GR80) CHEAL (CHEAL),Post-emergence activity (GR80) DATST (DATST),Post-emergence activity (GR80) DIGSA (DIGSA),Post-emergence activity (GR80) PORAL (POROL),Post-emergence activity (GR80) SOLNI (SOLNI [1]),Post-emergence activity (GR80) ECHCG (ECHCG),Post-emergence activity (GR80) PANMI (PANMI),Post-emergence activity (GR80) ABUTH (ABUTH [2]),Post-emergence activity (GR80) SORHA (SORHA [3]),Post-emergence activity (GR80) AMARE (AMARE),Post-emergence activity (GR80) BRAPP (BRAPP [4]),also measured
"O=C(NCC(CO)NC(=O)c1cccc(C(F)(F)F)c1)c1cccc(C(F)(F)F)c1 (stereo not shown) [Example 11, N,N′-(3-hydroxy-1,2-propanediylbis)-3-(trifluoromethyl)benzamide]",[empty],[empty],[empty],phyto,[empty],[empty],[empty],[empty],[empty],[empty],[empty],phyto,[empty],Post-emergence activity (GR80) CIRAR (CIRAR): [empty]
CC(CNC(=O)c1cccc(C(F)(F)F)c1)NC(=O)c1ccccc1SCCCCl (stereo not shown) [Example 119],[empty],[empty],[empty],phyto,[empty],phyto,phyto,[empty],[empty],phyto,[empty],phyto,[empty],Post-emergence activity (GR80) CONAR (CONAR): phyto; Pre-emergence activity (GR80) on BRAPP (BRAPP [5]): phyto; Pre-emergence activity (GR80) on SOLNI (SOLNI [6]): 1000 g/ha; Pre-emergence activity (GR80) on ABUTH (ABUTH [7]): phyto; Pre-emergence activity (GR80) on SORHA (SORHA [8]): phyto; Pre-emergence activity (GR80) on SETFA (SETFA [9]): phyto; Post-emergence activity (GR80) SETFA (SETFA [10]): [empty]
